Experimental findings from patent publication US6403621B1, “Method for protecting plants” (Syngenta Crop Protection, Inc., priority 1997, dated 2002) are described below.

Data set [1] relates to nematodes. As to the kind of experiment: Protection of other crops against attack by nematodes. It counts as in vivo. To be noted: applied on tomatoes, soybean, carrots, potatoes and beet. The source says:
Good effects for protecting plants against attack by nematodes are also found by applying acibenzolar-S-methyl on tomatoes, soybean, carrots, potatoes and beet.

Data set [2] relates to grapevines. The experiment in a line: Plant tolerance (phytotoxicity, appearance, fresh weights) of treated grapevines. It counts as in vivo, Vitis vinifera (Cabernet Sauvignon). The note with it: 50 mg/l foliar spray. As for the experimental part:
(§1) Uniformly developed rooted hardwood grapevine cuttings, variety Cabernet Sauvignon (Vitis vinifera), are planted into 20 cm diameter pots (one plant per pot) containing a pasteurised potting mix consisting of 50:50 coarse sand and peat. (Prior to pasteurisation, 300 g of fertiliser is added to each 50 liter bin of potting mix. The fertiliser consisted of 1000 g single superphosphate, 200 g ammonium nitrate, 150 g potassium sulphate, 100 g ferrous sulphate, 3000 g dolomite lime and 1500 g lime). The grapevines are grown in a glasshouse at 19-24° C. The plants are watered on alternate days, and fertilised weekly with a water soluble fertiliser. Grapevines are inoculated with 1000 juveniles of a mixed population of root-knot nematodes (Meloidogyne javanica and M. arenaria) 4 weeks after planting. The nematodes are pipetted into two 2cm deep holes at the base of the plant. Grapevine roots are harvested for nematode egg counts 10 weeks after inoculation (described below).
(§2) Acibenzolar-S-methyl (which is benzo(1,2,3)thiadiazole-7-carbothioic acid S-methyl ester, a plant activator from NOVARTIS) is formulated as a 50% water dispersible granule, diluted to 50 mg per liter of spray mixture and sprayed onto the leaves of the grapevines (using a hand-held sprayer) until the point of run-off.

Data set [3] has as its system Eggs and juvenile root-knot nematodes. As to the kind of experiment: Direct effect on eggs and juvenile root-knot nematodes in aqueous solution. Further details: species or system Meloidogyne spp. An excerpt:
Direct Effect of Acibenzolar-S-methyl onto Nematodes Eggs and juvenile root-knot nematodes are placed into aqueous solutions of acibenzolar-S-methyl (1, 10, 20 and 50 ppm active ingredient). No effect is observed on egg hatching and viability on those eggs and juvenils on penetration of those nematodes into tomato roots and on the number of eggs produced by those nematodes on tomatoes.

For data set [4], the system named is root-knot nematodes (Meloidogyne javanica and M. arenaria). As to the kind of experiment: Egg production by root-knot nematodes on inoculated grapevines after foliar spray. It is filed as in vivo. The note with it: 50 mg/l foliar spray, eggs in 20 ml sub-sample. As for the experimental part: (§3) Root-knot nematodes (Meloidogyne spp.) are cultured on tobacco or tomato. Root-knot nematode eggs are collected from these plants and hatched for inoculation of the grapevines using the standard method. Nematode eggs are collected from the inoculated grapevines by agitating clean root pieces in 0,8% NaOCl for four minutes. The roots are washed on a bank of three sieves and eggs collected on a 25 μm sieve. The eggs are washed into 100 ml of water and the number of eggs in a 20 ml sub-sample is estimated using a Doncaster dish. Galling is assessed in grapevine roots before egg counts. The roots are assessed with the naked eye for percentage of galls on the roots.
as §1, §2
a) cumulative applications: In the first series, acibenzolar-S-methyl is applied to the plants once, twice or three times. The single treatment of acibenzolar-S-methyl is applied one week before inoculation; the double treatment is applied one week before inoculation and at the same time as inoculation; for the third treatment acibenzolar-S-methyl is applied one week before inoculation, at inoculation and one week after inoculation.
(§4) b) single applications: A second series of experiments tested only single applications of acibenzolar-S-methyl either five days before inoculation, at the same time as inoculation or five days after inoculation. Both series of experiments have been completed twice. Water is used as the control treatment in each series.
(§5) The tables indicate the number of eggs produced by Meloidogyne spp in a 20 ml sub-sample, and the percentage galling on roots, resp.

For data set [5] the test system is unchanged. The experiment in a line: Percentage galling on grapevine roots after foliar spray. It is filed as in vivo. To be noted: 50 mg/l foliar spray. As for the experimental part: as §3, §1, §2, §4, §5
The mark [6] stands for this setting: after exposure to aqueous solutions, 1, 10, 20 and 50 ppm active ingredient.

With `CSC(=O)c1cccc2nnsc12` [acibenzolar-S-methyl, benzo(1,2,3)thiadiazole-7-carbothioic acid S-methyl ester], in data set [1], the “protecting plants against attack by nematodes” value is listed as “Good effects”. Also, in data set [2] (versus water control), the “appearance of grapevines at harvest” value is on record as “no significant differences”. For the same compound, in data set [2] (grapevines), the phytotoxicity entry is on record as “No phytotoxicity”. Moreover, in data set [2] (grapevines), the “root fresh weights or fresh weight of the foliage and stems” value is given as “no difference”. For the same compound, the “effect on number of eggs produced by the nematodes on tomatoes” value in data set [3] (setting [6]) is “No effect”. The “effect on penetration of nematodes into tomato roots” value in data set [3] (setting [6]) is given as “No effect”. The “effect on egg hatching and viability of eggs and juveniles” value in data set [3] (aqueous solutions, 1, 10, 20 and 50 ppm active ingredient) is “No effect”. For the same compound, the Number of eggs in data set [4] (one application (one week before inoculation), first experiment, 10 weeks after inoculation, control 4320) is on record as 1520 (8); in data set [4] (one application (one week before inoculation), second experiment, control 240), 150 (7); in data set [4] (three applications (one week before, at and one week after inoculation), first experiment, control 4320), 1400 (6); in data set [4] (three applications (one week before, at and one week after inoculation), second experiment, control 240), 20 (7); in data set [4] (two applications (one week before and at inoculation), first experiment, control 4320) it was 740 (7); in data set [4] (two applications (one week before and at inoculation), second experiment, control 240) it was 100 (7). Further, the Mean percentage galling is reported as 2.3 (8) % in data set [5] (single application at inoculation, first experiment, control 10); 3 (6) % in data set [5] (single application at inoculation, second experiment, control 5); 1.1 (8) % in data set [5] (single application five days after inoculation, first experiment, control 10); 4 (8) % in data set [5] (single application five days after inoculation, second experiment, control 5); 0.6 (8) % in data set [5] (single application five days before inoculation, first experiment, control 10); 2 (7) % in data set [5] (single application five days before inoculation, second experiment, control 5).
